# Measured values taken from US7612054B2, “Dibenzo[b,f]oxepine-10-carboxamides and pharmaceutical uses thereof” (Novartis AG, priority 2003, dated 2009).
row,melting point [°C],SMILES
1,229 to 230,"CCCCNC(=O)C(C)CC(O)C(Cc1ccccc1)NC(=O)c1cc2ccccc2c(=O)c2ccccc12 (stereo not shown) [Example 11, 5-Oxo-5H-dibenzo[a,d]cycloheptene-10-carboxylic acid (1-benzyl-4-butylcarbamoyl-2-hydroxy-pentyl)-amide]"
2,204 to 207,"CCCCNC(=O)C(C)CC(O)C(Cc1cccc(F)c1)NC(=O)C1=Cc2ccccc2Oc2ccccc21 (stereo not shown) [Example 17, Dibenzo[b,f]oxepine-10-carboxylic acid [4-butylcarbamoyl-1-(3-fluorobenzyl)-2-hydroxy-pentyl]-amide]"
3,174 to 176,"CCCCNC(=O)C(C)CC(O)C(Cc1cc(F)cc(F)c1)NC(=O)C1=Cc2ccccc2Oc2ccccc21 (stereo not shown) [Example 16, Dibenzo[b,f]oxepine-10-carboxylic acid [4-butylcarbamoyl-1-(3,5-difluorobenzyl)-2-hydroxy-pentyl]-amide]"
4,153 to 155,"CCCCNC(=O)C(C)CC(O)C(Cc1ccccc1)NC(=O)C1=Cc2ccccc2Oc2cc(Cl)ccc21 (stereo not shown) [Example 9, 7-Chloro-dibenzo[b,f]oxepine-10-carboxylic acid (1-benzyl-4-butylcarbamoyl-2-hydroxy-pentyl)-amide]"
